According to PubChem BioAssay AID248 (DTP/NCI, 2004):
Where “and” joins values, the source holds several entries; their conditions need not be identical. Equal values may be shown once. Inconclusive results and toxic doses are left out.

System: L1210 leukemia ip in BDF1 mice, survival T/C
Experiment: NCI In Vivo Anticancer Drug Screen. Data for tumor model L1210 Leukemia (intraperitoneal) in B6D2F1 (BDF1) mice
Conditions: endpoint: mean survival time, higher = longer survival
Procedure, shortened: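 In this screen, tumor-bearing mice given compound are compared to those given vehicle, and their survival values are reported as a treated-to-control quotient.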

[1] = dose: 50.0 mg/kg/injection, schedule: Q01DX001 (ip), vehicle: carboxymethylcellulose (CMC)
[2] = dose: 100.0 mg/kg/injection, schedule: Q01DX001 (ip), vehicle: carboxymethylcellulose (CMC)
[3] = dose: 200.0 mg/kg/injection, schedule: Q01DX001 (ip), vehicle: carboxymethylcellulose (CMC)
[4] = dose: 400.0 mg/kg/injection, schedule: Q01DX001 (ip), vehicle: carboxymethylcellulose (CMC)
[5] = dose: 100.0 mg/kg/injection, schedule: Q01DX001 (ip), vehicle: saline
[6] = dose: 200.0 mg/kg/injection, schedule: Q01DX001 (ip), vehicle: saline
[7] = dose: 400.0 mg/kg/injection, schedule: Q01DX001 (ip), vehicle: saline
[8] = dose: 100.0 mg/kg/injection, schedule: Q04DX003 (ip), vehicle: Klucel (hydroxypropylcellulose) (HPC)
[9] = dose: 200.0 mg/kg/injection, schedule: Q04DX003 (ip), vehicle: Klucel (hydroxypropylcellulose) (HPC)
[10] = dose: 400.0 mg/kg/injection, schedule: Q04DX003 (ip), vehicle: Klucel (hydroxypropylcellulose) (HPC)
[11] = dose: 100.0 mg/kg/injection, schedule: Q01DX009 (ip), vehicle: Klucel (hydroxypropylcellulose) (HPC)
[12] = dose: 200.0 mg/kg/injection, schedule: Q01DX009 (ip), vehicle: Klucel (hydroxypropylcellulose) (HPC)
[13] = dose: 400.0 mg/kg/injection, schedule: Q01DX009 (ip), vehicle: Klucel (hydroxypropylcellulose) (HPC)
[14] = dose: 100.0 mg/kg/injection, schedule: Q01DX009 (ip), vehicle: saline
[15] = dose: 50.0 mg/kg/injection, schedule: Q01DX009 (ip), vehicle: saline
[16] = dose: 200.0 mg/kg/injection, schedule: Q01DX009 (ip), vehicle: saline
[17] = dose: 25.0 mg/kg/injection, schedule: Q01DX009 (ip), vehicle: Klucel (hydroxypropylcellulose) (HPC)
[18] = dose: 50.0 mg/kg/injection, schedule: Q01DX009 (ip), vehicle: Klucel (hydroxypropylcellulose) (HPC)
[19] = dose: 100.0 mg/kg/injection, schedule: Q04DX003 (ip), vehicle: saline with Tween-80
[20] = dose: 200.0 mg/kg/injection, schedule: Q04DX003 (ip), vehicle: saline with Tween-80
[21] = dose: 400.0 mg/kg/injection, schedule: Q04DX003 (ip), vehicle: saline with Tween-80
[22] = dose: 100.0 mg/kg/injection, schedule: Q01DX009 (ip), vehicle: saline with Tween-80
[23] = dose: 200.0 mg/kg/injection, schedule: Q01DX009 (ip), vehicle: saline with Tween-80
[24] = dose: 400.0 mg/kg/injection, schedule: Q01DX009 (ip), vehicle: saline with Tween-80
[25] = dose: 100.0 mg/kg/injection, schedule: Q04DX003 (ip), vehicle: saline
[26] = dose: 200.0 mg/kg/injection, schedule: Q04DX003 (ip), vehicle: saline
[27] = dose: 400.0 mg/kg/injection, schedule: Q04DX003 (ip), vehicle: saline

With Cc1cc([N+](=O)[O-])cc(C)c1N the T/C [1] was 100 % of control, the T/C [2] was 102 % of control and the T/C [3] was 100 % of control. The T/C [4] was 110 % of control.

For COC(=O)c1cc([N+](=O)[O-])c(C)s1, the T/C [5] was 100 % of control, the T/C [6] was 100 % of control and the T/C [7] was 96 % of control.

For O=C(Nc1ccc(C(=O)O)cc1)Nc1cc([N+](=O)[O-])ccc1F, the T/C [8] was 92 % of control, the T/C [9] was 94 % of control and the T/C [10] was 94 % of control.

CCOC(=O)C(C)C(OCC)OCC (configuration not stated) was tested, and the T/C [11] was 96 % of control, the T/C [8] was 90 % of control and the T/C [12] was 104 % of control. The T/C [9] was 103 % of control, the T/C [13] was 89 % of control and the T/C [10] was 107 % of control.

With CNc1ncnc2c1ncn2C1CC(CO)C(O)C1O (configuration not stated) the T/C [14] was 98 % of control.

For CC[N+]12CC=C3COC(=O)C(C)(O)C(C)(O)C(C)C(=O)OC(CC1)C32 (configuration not stated), the T/C [15] was 92 % of control, the T/C [14] was 97 % of control and the T/C [16] was 92 % of control.

In the case of CC(=O)Oc1cn(C)c2c1C(=O)CC(C)(C)C2, the T/C (dose: 75.0 mg/kg/injection, schedule: Q04DX002 (ip), vehicle: Klucel (hydroxypropylcellulose) (HPC)) is reported as 94 % of control, the T/C (dose: 150.0 mg/kg/injection, schedule: Q04DX002 (ip), vehicle: Klucel (hydroxypropylcellulose) (HPC)) is reported as 105 % of control and the T/C (dose: 300.0 mg/kg/injection, schedule: Q04DX002 (ip), vehicle: Klucel (hydroxypropylcellulose) (HPC)) is reported as 97 % of control.

For NC(=S)N/N=C/c1cccnc1, the T/C [17] was 92 % of control, the T/C [18] was 87 % of control and the T/C (dose: 50.0 mg/kg/injection, schedule: Q04DX002 (ip), vehicle: Klucel (hydroxypropylcellulose) (HPC)) was 98 % of control. The T/C [11] was 89 % of control, the T/C (dose: 100.0 mg/kg/injection, schedule: Q04DX002 (ip), vehicle: Klucel (hydroxypropylcellulose) (HPC)) was 95 % of control and 107 % of control and the T/C (dose: 200.0 mg/kg/injection, schedule: Q04DX002 (ip), vehicle: Klucel (hydroxypropylcellulose) (HPC)) was 95 % of control.

With O=NN(CCCl)C(=O)Nc1ccc(CCCl)cc1 the T/C (dose: 10.0 mg/kg/injection, schedule: Q01DX001 (ip), vehicle: carboxymethylcellulose (CMC)) was 161 % of control, the T/C (dose: 20.0 mg/kg/injection, schedule: Q01DX001 (ip), vehicle: carboxymethylcellulose (CMC)) was 152 % of control and the T/C (dose: 33.0 mg/kg/injection, schedule: Q01DX001 (ip), vehicle: carboxymethylcellulose (CMC)) was 246 % of control. The T/C (dose: 33.0 mg/kg/injection, schedule: Q01DX009 (ip), vehicle: carboxymethylcellulose (CMC)) was 107 % of control, the T/C [1] was 216 % of control and the T/C (dose: 50.0 mg/kg/injection, schedule: Q01DX009 (ip), vehicle: carboxymethylcellulose (CMC)) was 87 % of control.

For Cc1ccc(NS(=O)(=O)c2ccc(Cl)cc2)cc1Cl, the T/C [17] was 94 % of control, the T/C [18] was 99 % of control and the T/C [11] was 96 % of control. The T/C [8] was 106 % of control, the T/C [12] was 99 % of control and the T/C [9] was 96 % of control. For the same compound, the T/C [13] was 88 % of control and the T/C [10] was 100 % of control.

C(#CCOc1ccccc1)COc1ccccc1 was tested, and the T/C [19] was 97 % of control, the T/C [20] was 97 % of control and the T/C [21] was 97 % of control.

In the case of CCN(CC)C(=O)CSC#N, the T/C (dose: 6.25 mg/kg/injection, schedule: Q04DX002 (ip), vehicle: other) is reported as 88 % of control and the T/C (dose: 12.5 mg/kg/injection, schedule: Q04DX002 (ip), vehicle: other) is reported as 103 % of control.

For CN1C2CCC1CN(Cc1ccccc1)C2, the T/C (dose: 12.5 mg/kg/injection, schedule: Q01DX009 (ip), vehicle: saline) was 103 % of control, the T/C (dose: 12.5 mg/kg/injection, schedule: Q04DX003 (ip), vehicle: saline) was 97 % of control and the T/C (dose: 25.0 mg/kg/injection, schedule: Q01DX009 (ip), vehicle: saline) was 101 % of control. The T/C (dose: 25.0 mg/kg/injection, schedule: Q04DX003 (ip), vehicle: saline) was 101 % of control, the T/C [15] was 101 % of control and the T/C (dose: 50.0 mg/kg/injection, schedule: Q04DX003 (ip), vehicle: saline) was 98 % of control.

COc1cccc(/C=C(\S)C(=O)O)c1O was tested, and the T/C [2] was 86 % of control, the T/C [3] was 89 % of control and the T/C [4] was 89 % of control.

C=CCc1cc(OC)c2c(c1OC)C(=O)c1cccc(OC)c1C2=O was tested, and the T/C [19] was 97 % of control and the T/C [20] was 105 % of control.

With O=[N+]([O-])c1cccc(CO)c1-c1c(CO)cccc1[N+](=O)[O-] the T/C [22] was 101 % of control, the T/C [23] was 102 % of control and the T/C [24] was 101 % of control.

With CC1CN(c2ccccc2)NC1=O (configuration not stated) the T/C [25] was 97 % of control, the T/C [26] was 95 % of control and the T/C [27] was 97 % of control.

In the case of O=C1CSCc2nc3ccccc3n21, the T/C [22] is reported as 97 % of control, the T/C [19] is reported as 106 % of control and the T/C [23] is reported as 100 % of control. For the same compound, the T/C [20] was 103 % of control, the T/C [24] was 100 % of control and the T/C [21] was 97 % of control.

With NC(=O)CC1(O)CCCCC1 the T/C [25] was 114 % of control, the T/C [26] was 97 % of control and the T/C [27] was 97 % of control.

In the case of Cc1cc(=O)[nH]c(N/N=C/C(C)C)n1, the T/C [18] is reported as 95 % of control, the T/C [11] is reported as 95 % of control and the T/C [8] is reported as 95 % of control. The T/C [12] was 93 % of control and the T/C [9] was 89 % of control.

CCCCCCCC/C=C\CCCCCCCC(=O)OCCCCCCCCCCCCCCC was tested, and the T/C (dose: 100.0 mg/kg/injection, schedule: Q01DX009 (ip), vehicle: other) was 96 % of control, the T/C (dose: 200.0 mg/kg/injection, schedule: Q01DX009 (ip), vehicle: other) was 96 % of control and the T/C (dose: 400.0 mg/kg/injection, schedule: Q01DX009 (ip), vehicle: other) was 96 % of control.

With CC(CN1CCOCC1)O[Si](C)(C)C (configuration not stated) the T/C [15] was 92 % of control, the T/C [14] was 96 % of control and the T/C [16] was 96 % of control.

COc1ccc(OC)c(CC(C)=O)c1 was tested, and the T/C [2] was 93 % of control, the T/C [3] was 101 % of control and the T/C [4] was 95 % of control.

In the case of COc1cc(N[Si](C)(C)C)nc(OC)n1, the T/C [15] is reported as 100 % of control, the T/C [14] is reported as 96 % of control and the T/C [16] is reported as 92 % of control.

For CCc1cc(C)cc(OC(=O)Nc2cc(Cl)ccc2C)c1, the T/C [11] was 95 % of control, the T/C [12] was 90 % of control and the T/C [13] was 100 % of control.

In the case of CC(C)(C)C1CCCCC1O (configuration not stated), the T/C [5] is reported as 92 % of control, the T/C [6] is reported as 97 % of control and the T/C [7] is reported as 92 % of control.

CC(=O)Oc1c2c(c(CC=C(C)C)c3c1C(=O)C1=CC4CC5C(C)(C)OC(C/C=C(/C)C(=O)O)(C4=O)C15O3)OC(C)(CCC=C(C)C)C=C2 (configuration not stated) was tested, and the T/C [18] was 109 % of control, the T/C (dose: 50.0 mg/kg/injection, schedule: Q04DX003 (ip), vehicle: Klucel (hydroxypropylcellulose) (HPC)) was 103 % of control and the T/C (dose: 100.0 mg/kg/injection, schedule: Q01DX001 (ip), vehicle: Klucel (hydroxypropylcellulose) (HPC)) was 106 % of control. The T/C [11] was 91 % of control, the T/C [8] was 97 % of control and the T/C (dose: 200.0 mg/kg/injection, schedule: Q01DX001 (ip), vehicle: Klucel (hydroxypropylcellulose) (HPC)) was 114 % of control. The T/C [9] was 105 % of control and the T/C (dose: 400.0 mg/kg/injection, schedule: Q01DX001 (ip), vehicle: Klucel (hydroxypropylcellulose) (HPC)) was 110 % of control.

With Cn1nc(SCc2ccccc2)c(=O)[nH]c1=O the T/C (dose: 75.0 mg/kg/injection, schedule: Q01DX001 (ip), vehicle: saline) was 97 % of control and the T/C (dose: 150.0 mg/kg/injection, schedule: Q01DX001 (ip), vehicle: saline) was 104 % of control.

With CCC(c1ccc(OC)cc1)C(CC)c1ccc(OCCN2CCCC2)cc1 (configuration not stated) the T/C (dose: 12.5 mg/kg/injection, schedule: Q01DX001 (ip), vehicle: saline) was 94 % of control, the T/C (dose: 25.0 mg/kg/injection, schedule: Q01DX001 (ip), vehicle: saline) was 94 % of control and the T/C (dose: 50.0 mg/kg/injection, schedule: Q01DX001 (ip), vehicle: saline) was 95 % of control. The T/C [5] was 97 % of control.

For O=c1cc(-c2ccccc2)oc(-c2ccc(Cl)cc2)c1, the T/C [17] was 98 % of control, the T/C [18] was 98 % of control and the T/C [11] was 100 % of control. For the same compound, the T/C [8] was 97 % of control, the T/C [9] was 90 % of control and the T/C [10] was 100 % of control.
